Experimental data taken from patent publication US10413505B1, “Pharmaceutical compositions and methods of using the same” (priority 2017, dated 2019).
“And” between values parts separate entries of the source, which are not always exact repeats. Identical values can stand only once.

Key:
[1] = Example 2 plasma pharmacokinetics, normal renal function vs severe renal impairment
[2] = Example 3 urinary pharmacokinetics, normal hepatic function vs hepatic impairment; format: in vivo, human; settings: for Urine Recovery as % of Dose, Geomean / Urine Recovery as % of Dose, Mean: 0-32 h, single intranasal dose; for CLr Geomean / CLr Mean: Table 26
Description: Urine was collected prior to dosing and from 0-2, 2-4, 4-8, 8-12, 12-24, and 24-32 hours after beginning of dose application. […] Urinary pharmacokinetic parameters included total urinary recovery (μg), urinary recovery as a percentage of dose, and CLr.

[3] = Example 1 single-dose plasma pharmacokinetics after intranasal administration; format: in vivo, human; settings: healthy subjects; single intranasal 160 mg cocaine HCl; plasma, >12 h after dosing
Description: Single-dose plasma and urinary pharmacokinetics of the pharmaceutical composition following intranasal administration was characterized in this study. This was a single-dose study in 30 healthy volunteers. The objective of the study was to examine the systemic pharmacokinetics of the pharmaceutical composition following acute, topical intranasal administration.
A single dose of a pharmaceutical composition was administered to both nostrils using cottonoid pledgets. […] Each pledget absorbed approximately 1 mL of pharmaceutical composition (i.e., 40 mg cocaine hydrochloride). Two soaked pledgets were placed into each nasal cavity of the subject and against the anterior septum for 20 minutes; thus, a total dose of 160 mg of cocaine hydrochloride was administered.
Blood samples were collected pre-dose (30 minutes before pledget insertion), and 7.5, 15, 20, 30, 45, 60, 75, 90, and 105 minutes and 2, 3, 4, 6, 8, 10, and 12 hours from the start of application of the pharmaceutical composition.
The effect of gender on Cmax, Tmax, AUClast, AUCinf, and t1/2 was determined. The effects of age, body weight, and BMI on AUClast were determined.

[4] = normal renal function, single intranasal 160 mg cocaine HCl, plasma
[5] = severe renal impairment, single intranasal 160 mg cocaine HCl, plasma
[6] = normal hepatic function, single intranasal 160 mg cocaine HCl
[7] = subjects with hepatic impairment
[8] = subjects with hepatic impairment, 32 hours post administration
[9] = subjects with hepatic impairment, Table 30
[10] = subjects with normal hepatic function
[11] = subjects with normal hepatic function, Table 29

Compound: CN1[C@H]2CC[C@@H]1[C@@H](C(=O)O)[C@@H](OC(=O)c1ccccc1)C2 [BE, benzoylecgonine]
- AUC0→t (Geometric mean) [1, 4]: 589.5 ng·h/mL
- AUC0→t (Max) [1, 4]: 2126 ng·h/mL
- AUC0→t (Mean) [1, 4]: 762.1 ng·h/mL
- AUC0→t (Median) [1, 4]: 616 ng·h/mL
- AUC0→t (Min) [1, 4]: 167.4 ng·h/mL
- AUC0→∞ (Geometric mean) [1, 4]: 639.2 ng·h/mL
- AUC0→∞ (Max) [1, 4]: 2284 ng·h/mL
- AUC0→∞ (Mean) [1, 4]: 823.8 ng·h/mL
- AUC0→∞ (Median) [1, 4]: 676 ng·h/mL
- AUC0→∞ (Min) [1, 4]: 166.1 ng·h/mL
- Clast (Geometric mean) [1, 4]: 4 ng/mL and 3.96 ng/mL
- Clast (Max) [1, 4]: 13.60 ng/mL
- Clast (Mean) [1, 4]: 5.08 ng/mL
- Clast (Median) [1, 4]: 4.34 ng/mL
- Clast (Min) [1, 4]: 1.32 ng/mL
- Cmax (Geometric mean) [1, 4]: 40.9 ng/mL
- Cmax (Max) [1, 4]: 158.0 ng/mL
- Cmax (Mean) [1, 4]: 55.7 ng/mL
- Cmax (Median) [1, 4]: 42.1 ng/mL
- Cmax (Min) [1, 4]: 9.0 ng/mL
- Tlast (Geometric mean) [1, 4]: 32.0 h
- Tlast (Max) [1, 4]: 32.0 h
- Tlast (Mean) [1, 4]: 32.0 h
- Tlast (Median) [1, 4]: 32.0 h
- Tlast (Min) [1, 4]: 1920 min
- Tmax (Geometric mean) [1, 4]: 2.75 h
- Tmax (Max) [1, 4]: 6.00 h
- Tmax (Mean) [1, 4]: 3.22 h
- Tmax (Median) [1, 4]: 2.5 h
- Tmax (Min) [1, 4]: 75 min
- t1/2 (Geometric mean) [1, 4]: 8.429 h
- t1/2 (Max) [1, 4]: 9.79 h
- t1/2 (Mean) [1, 4]: 8.47 h
- t1/2 (Median) [1, 4]: 8.32 h
- t1/2 (Min) [1, 4]: 442 min
- geometric mean AUClast, fold higher than in normal subjects ([1]; severe renal impairment vs normal renal function): more than 3.5 fold
- AUC0→t (Geometric mean) [1, 5]: 2091 ng·h/mL
- AUC0→t (Max) [1, 5]: 6242 ng·h/mL
- AUC0→t (Mean) [1, 5]: 2733.6 ng·h/mL
- AUC0→t (Median) [1, 5]: 1758 ng·h/mL
- AUC0→t (Min) [1, 5]: 605.7 ng·h/mL
- Clast (Geometric mean) [1, 5]: 41.3 ng/mL
- Clast (Max) [1, 5]: 133.0 ng/mL
- Clast (Mean) [1, 5]: 54.36 ng/mL
- Clast (Median) [1, 5]: 35.7 ng/mL
- Clast (Min) [1, 5]: 14.50 ng/mL
- Cmax (Geometric mean) [1, 5]: 90.5 ng/mL
- Cmax (Max) [1, 5]: 290.0 ng/mL
- Cmax (Mean) [1, 5]: 120.4 ng/mL
- Cmax (Median) [1, 5]: 75.8 ng/mL
- Cmax (Min) [1, 5]: 23.7 ng/mL
- Tlast (Geometric mean) [1, 5]: 32.0 h
- Tlast (Max) [1, 5]: 32.0 h
- Tlast (Mean) [1, 5]: 32.0 h
- Tlast (Median) [1, 5]: 32.0 h
- Tlast (Min) [1, 5]: 1920 min
- Tmax (Geometric mean) [1, 5]: 6.13 h
- Tmax (Max) [1, 5]: 12.0 h
- Tmax (Mean) [1, 5]: 6.625 h
- Tmax (Median) [1, 5]: 6.0 h
- Tmax (Min) [1, 5]: 180 min
- t1/2 (Geometric mean) [1, 5]: 24.65 h
- t1/2 (Max) [1, 5]: 31.62 h
- t1/2 (Mean) [1, 5]: 24.97 h
- t1/2 (Median) [1, 5]: 24.0 h
- t1/2 (Min) [1, 5]: 1191 min
- Urine Recovery as % of Dose, Geomean ([2]; Impaired hepatic function): 2.74 % of Dose
- Urine Recovery as % of Dose, Mean ([2]; Impaired hepatic function): 3.30 % of Dose
- CLr Geomean ([2]; Impaired hepatic function): 2.59 L/h
- CLr Mean ([2]; Impaired hepatic function): 2.90 L/h
- Urine Recovery as % of Dose, Geomean ([2]; Normal hepatic function): 1.42 % of Dose
- Urine Recovery as % of Dose, Mean ([2]; Normal hepatic function): 1.73 % of Dose
- CLr Geomean ([2]; Normal hepatic function): 3.96 L/h
- CLr Mean ([2]; Normal hepatic function): 4.30 L/h
- 0-32 h Urinary Recovery (geometric mean) [2, 6]: 1928.3 µg
- 0-32 h Urinary Recovery (mean) [2, 6]: 2359.75 µg
- 0-32 h Urinary Recovery (median) [2, 6]: 2098.9 µg
- Renal Clearance, geometric mean [2, 7]: 43.11 mL/min
- Renal Clearance, mean [2, 7]: 48.27 mL/min
- Renal Clearance, median [2, 7]: 47.80 mL/min
- 0-32 h Urinary Recovery (geometric mean) [2, 8]: 3735.6 µg
- 0-32 h Urinary Recovery (mean) [2, 8]: 4500 µg
- 0-32 h Urinary Recovery (median) [2, 8]: 3283.7 µg
- Renal Clearance, geometric mean [2, 9]: 43.11 mL/min
- Renal Clearance, mean [2, 9]: 48.273 mL/min
- Renal Clearance, median [2, 9]: 47.8 mL/min
- Renal Clearance, geometric mean [2, 10]: 65.948 mL/min
- Renal Clearance, mean [2, 10]: 71.585 mL/min
- Renal Clearance, median [2, 10]: 58.237 mL/min
- Renal Clearance, geometric mean [2, 11]: 65.95 mL/min
- Renal Clearance, mean [2, 11]: 71.585 mL/min
- Renal Clearance, median [2, 11]: 58.23 mL/min
- plasma level not exceeded (metabolite not detectable in plasma) [3]: ≤ 100 ng/mL
